Measured values taken from article PMC12675575, “A BRET biosensor for measuring uncompetitive engagement of PRMT5 complexes in cells” (Nature Communications, 2025).
Values joined by “and” are separate entries in the source; they are usually repeats but may differ in a detail not shown here. Equal entries are not always repeated.

Experiments:
[1] = system: PRMT5:MEP50; parameters: method as in ref 1 (a number printed in a supplementary file, which may have a reference list of its own: not looked up in the article's list); details: HTRF, H4R3 monomethylation; read-out: Biochemical (nM), IC50; cited from earlier work
[2] = system: MAT2A; assay: BRET probe sensitivity to MAT2A inhibition (Compound A) in live HEK293 cells expressing NLuc-PRMT5; assay type: cell-based; details: Log([Compound A]), 37 °C
[3] = system: MAT2A; assay: as above; assay type: cell-based; details: for normalized BRET signal (Figure S3D) / Normalized BRET probe signal: Log([Compound A]); for normalized BRET signal (Figure S3D): replicates; for Normalized BRET probe signal: 37 °C
Protocol: To measure BRET probe sensitivity to both MAT2A inhibition and exogenous MTA in live cells, HEK293 cells were pre-treated with 30 nM CBH-002 and incubated at 37 °C and 5% CO2 for 2 h. For MAT2A inhibition, a 20 µM, 3-fold, 11 pt titration series of Compound A (Selleckchem) was added to wells. Cells were incubated either at 37 °C (Fig. 3D) or room temperature (Fig. S3D). Data were normalized using Eq. (2), where BRETMIN = instrument background (no CBH-002), and BRETMAX = 2 h vehicle treatment, and fit curves were generated using Eq. (1). For MTA sensitivity cells were treated with a 1 mM, 11 pt, 2-fold series of MTA (Sigma) and cells were incubated at room temperature for 2 h, reading in 15 min intervals. Data were normalized using Eq. (2), where BRETMIN = instrument background (no CBH-002), and BRETMAX = 2 h + vehicle treatment. Data were fit with Eq. (1).

[4] = biological target: NLuc-PRMT5 co-expressed with WDR77 (Homo sapiens, UniProt O14744); assay: Compound EC50 titrations against MTA, NanoBRET in HEK293 (NLuc-PRMT5 + WDR77), with global Gaddum/Schild or Morrison fits
Protocol: MTA (Sigma) was prepared at 100× in 100% DMSO and diluted to 10× in Opti-MEM. Inhibitors were run as 11 pt, 3-fold dilution curves and MTA as a seven point, 3-fold dilution curve starting at 100 μM. Cells were incubated for 2 h at 37 °C and 5% CO2 prior to BRET measurements. Data was normalized using Eq. (2) where BRETMIN = saturating compound + maximum [MTA], and BRETMAX = BRET signal under vehicle conditions. Curves were fit using Eq. (3), and EC50 values were plotted against MTA concentration to determine the linear range of MTA detection.

[5] = system: Z-138 cells; parameters: method as in ref 2,3 (a number printed in a supplementary file, which may have a reference list of its own: not looked up in the article's list); details: read-out: Proliferation (nM), IC50; cited from earlier work

Chain of NLuc-PRMT5 co-expressed with WDR77 (O14744 whole entry): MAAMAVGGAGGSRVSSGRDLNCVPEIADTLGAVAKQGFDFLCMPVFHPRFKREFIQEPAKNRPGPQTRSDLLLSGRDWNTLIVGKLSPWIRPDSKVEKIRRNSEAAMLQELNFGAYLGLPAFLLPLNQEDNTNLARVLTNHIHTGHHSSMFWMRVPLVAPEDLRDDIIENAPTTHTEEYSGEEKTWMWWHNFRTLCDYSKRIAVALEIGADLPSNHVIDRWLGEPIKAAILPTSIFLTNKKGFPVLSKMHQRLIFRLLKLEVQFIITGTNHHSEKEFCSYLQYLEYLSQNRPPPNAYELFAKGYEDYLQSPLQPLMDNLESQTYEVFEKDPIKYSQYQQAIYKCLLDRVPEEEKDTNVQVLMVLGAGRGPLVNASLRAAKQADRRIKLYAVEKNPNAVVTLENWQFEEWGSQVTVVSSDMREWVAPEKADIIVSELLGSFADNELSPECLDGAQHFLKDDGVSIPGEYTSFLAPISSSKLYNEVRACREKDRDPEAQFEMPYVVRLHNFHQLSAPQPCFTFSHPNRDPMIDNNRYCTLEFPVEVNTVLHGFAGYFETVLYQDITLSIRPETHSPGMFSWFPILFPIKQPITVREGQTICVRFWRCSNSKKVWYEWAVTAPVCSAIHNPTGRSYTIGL
Chain of NLuc-PRMT5 co-expressed with WDR77 (Q9BQA1 whole entry partner): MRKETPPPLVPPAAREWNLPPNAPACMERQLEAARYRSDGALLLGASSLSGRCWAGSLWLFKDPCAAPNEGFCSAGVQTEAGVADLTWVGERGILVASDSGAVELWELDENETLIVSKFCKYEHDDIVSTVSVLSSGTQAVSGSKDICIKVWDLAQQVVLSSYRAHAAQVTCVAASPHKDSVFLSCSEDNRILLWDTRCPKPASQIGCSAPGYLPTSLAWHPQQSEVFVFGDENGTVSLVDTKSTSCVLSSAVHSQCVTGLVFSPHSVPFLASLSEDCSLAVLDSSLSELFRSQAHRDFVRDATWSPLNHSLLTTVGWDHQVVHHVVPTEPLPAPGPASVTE

Which IC50 [1] does the source give for `CC(=O)N1CCC(Nc2cc(C(=O)NC[C@H](O)CN3CCc4ccccc4C3)ncn2)CC1` [GSK3326595] here?
The IC50 was 6.2 nM.

For `Nc1nc(=O)n(-c2ccccc2Cl)c2nc(C(F)(F)F)ccc12` [Compound A], which “Normalized BRET probe signal” value ([2]; uM 0.82, Time (h) 6) is on record?
Its value is 54.59 and 55.03 and 49.39.

What about the “Normalized BRET probe signal” value ([2]; uM 1.30, Time (h) 2) of the same molecule?
Its value is 83.43 and 85.48 and 85.77.

And the “Normalized BRET probe signal” value ([2]; uM 1.30, Time (h) 5)?
The value was 54.62 and 56.32 and 57.46.

And the “Normalized BRET probe signal” value ([2]; uM -1.56, Time (h) 4)?
Its value is 64.62 and 64.77 and 65.94.

And the “normalized BRET signal (Figure S3D)” value ([3]; uM 0.35, Time 0 min)?
Its value is 102.31 and 101.27 and 102.49.

What about the “normalized BRET signal (Figure S3D)” value ([3]; uM 0.35, Time 15 min) of the same molecule?
Its value is 102.22 and 100.75 and 100.92.

What about the “normalized BRET signal (Figure S3D)” value ([3]; uM 0.35, Time 30 min) of the same molecule?
The value was 98.94 and 102.77 and 99.88.

And the “normalized BRET signal (Figure S3D)” value ([3]; uM 0.35, Time 45 min)?
The value was 101.50 and 99.61 and 97.49.

And the “normalized BRET signal (Figure S3D)” value ([3]; uM 0.35, Time 60 min)?
The value was 100.91 and 99.04 and 97.98.

And the “normalized BRET signal (Figure S3D)” value ([3]; uM 0.35, Time 75 min)?
The value was 100.10 and 98.57 and 96.49.

What about the “normalized BRET signal (Figure S3D)” value ([3]; uM 0.35, Time 90 min) of the same molecule?
Its value is 99.02 and 98.37 and 97.43.

And the “normalized BRET signal (Figure S3D)” value ([3]; uM 0.35, Time 120 min)?
The value was 96.41 and 97.99 and 95.04.

And the “normalized BRET signal (Figure S3D)” value ([3]; uM 0.82, Time 0 min)?
The value was 101.24 and 100.09 and 103.66.

What about the “normalized BRET signal (Figure S3D)” value ([3]; uM 0.82, Time 15 min) of the same molecule?
The value was 101.29 and 99.47 and 102.07.

And the “normalized BRET signal (Figure S3D)” value ([3]; uM 0.82, Time 30 min)?
Its value is 99.28 (2×) and 100.85.

What about the “normalized BRET signal (Figure S3D)” value ([3]; uM 0.82, Time 45 min) of the same molecule?
The value was 99.67 and 98.96 and 100.10.

And the “normalized BRET signal (Figure S3D)” value ([3]; uM 0.82, Time 60 min)?
The value was 100.24 and 98.62 and 99.55.

And the “normalized BRET signal (Figure S3D)” value ([3]; uM 0.82, Time 75 min)?
Its value is 100.92 and 98.42 and 98.44.

What about the “normalized BRET signal (Figure S3D)” value ([3]; uM 0.82, Time 90 min) of the same molecule?
Its value is 100.92 and 98.07 and 97.73.

What about the “normalized BRET signal (Figure S3D)” value ([3]; uM 0.82, Time 120 min) of the same molecule?
Its value is 98.05 and 98.30 and 97.43.

And the “Normalized BRET probe signal” value ([3]; uM 0.82, Time (h) 2)?
The value was 80.32 and 82.63 and 81.99.

And the “Normalized BRET probe signal” value ([3]; uM 0.82, Time (h) 4)?
The value was 62.79.

What about the “Normalized BRET probe signal” value ([3]; uM 0.82, Time (h) 5) of the same molecule?
The value was 55.09 and 56.94 and 59.00.

And the “normalized BRET signal (Figure S3D)” value ([3]; uM 1.30, Time 0 min)?
The value was 100.00.

And the “normalized BRET signal (Figure S3D)” value ([3]; uM 1.30, Time 15 min)?
The value was 100.00.

And the “normalized BRET signal (Figure S3D)” value ([3]; uM 1.30, Time 30 min)?
The value was 100.00.

And the “normalized BRET signal (Figure S3D)” value ([3]; uM 1.30, Time 45 min)?
The value was 100.00.

And the “normalized BRET signal (Figure S3D)” value ([3]; uM 1.30, Time 60 min)?
Its value is 100.00.

And the “normalized BRET signal (Figure S3D)” value ([3]; uM 1.30, Time 75 min)?
Its value is 100.00.

What about the “normalized BRET signal (Figure S3D)” value ([3]; uM 1.30, Time 90 min) of the same molecule?
Its value is 100.00.

What about the “normalized BRET signal (Figure S3D)” value ([3]; uM 1.30, Time 120 min) of the same molecule?
The value was 100.00.

And the “Normalized BRET probe signal” value ([3]; uM 1.30, Time (h) 3)?
Its value is 81.83 and 81.36 and 78.63.

What about the “Normalized BRET probe signal” value ([3]; uM 1.30, Time (h) 4) of the same molecule?
Its value is 64.66 and 66.78 and 66.04.

What about the “Normalized BRET probe signal” value ([3]; uM 1.30, Time (h) 6) of the same molecule?
The value was 52.27 and 54.37 and 54.09.

And the “normalized BRET signal (Figure S3D)” value ([3]; uM 1.30, Time […])?
Its value is 100.00.

And the “normalized BRET signal (Figure S3D)” value ([3]; uM -0.13, Time 0 min)?
The value was 102.61.

What about the “normalized BRET signal (Figure S3D)” value ([3]; uM -0.13, Time 30 min) of the same molecule?
Its value is 99.28.

What about the “normalized BRET signal (Figure S3D)” value ([3]; uM -0.13, Time 45 min) of the same molecule?
Its value is 99.89 and 99.35 and 98.26.

What about the “normalized BRET signal (Figure S3D)” value ([3]; uM -0.13, Time 60 min) of the same molecule?
The value was 99.27 and 98.76 and 97.87.

What about the “normalized BRET signal (Figure S3D)” value ([3]; uM -0.13, Time 75 min) of the same molecule?
Its value is 99.29 and 98.14 and 96.57.

What about the “normalized BRET signal (Figure S3D)” value ([3]; uM -0.13, Time 90 min) of the same molecule?
The value was 99.41 and 97.78 and 96.89.

And the “normalized BRET signal (Figure S3D)” value ([3]; uM -0.13, Time 120 min)?
Its value is 97.11 and 97.69.

What about the “Normalized BRET probe signal” value ([3]; uM -1.56, Time (h) 2) of the same molecule?
The value was 86.27 and 89.51 and 86.94.

What about the “Normalized BRET probe signal” value ([3]; uM -1.56, Time (h) 3) of the same molecule?
Its value is 78.52 and 78.24 and 76.36.

And the “Normalized BRET probe signal” value ([3]; uM -1.56, Time (h) 5)?
Its value is 56.30 and 59.42 and 61.19.

And the “Normalized BRET probe signal” value ([3]; uM -1.56, Time (h) 6)?
The value was 57.39 and 58.36 and 56.05.

What about the “Normalized BRET probe signal” value ([3]; uM -2.04, Time (h) 2) of the same molecule?
Its value is 91.78 and 93.83 and 92.35.

And the “Normalized BRET probe signal” value ([3]; uM -2.04, Time (h) 3)?
The value was 84.09 and 82.20 and 80.64.

What about the “Normalized BRET probe signal” value ([3]; uM -2.04, Time (h) 4) of the same molecule?
The value was 71.87 and 73.84 and 72.51.

What about the “Normalized BRET probe signal” value ([3]; uM -2.04, Time (h) 5) of the same molecule?
The value was 61.86 and 65.39 and 67.66.

What about the “Normalized BRET probe signal” value ([3]; uM -2.04, Time (h) 6) of the same molecule?
Its value is 67.16 and 64.98 and 63.98.

What about the “Normalized BRET probe signal” value ([3]; uM -2.52, Time (h) 2) of the same molecule?
The value was 97.92 and 101.07 and 97.78.

And the “Normalized BRET probe signal” value ([3]; uM -2.52, Time (h) 3)?
The value was 92.42 and 90.78 and 89.69.

What about the “Normalized BRET probe signal” value ([3]; uM -2.52, Time (h) 4) of the same molecule?
Its value is 81.28 and 83.71 and 82.94.

And the “Normalized BRET probe signal” value ([3]; uM -2.52, Time (h) 5)?
The value was 74.64 and 76.80 and 79.27.

And the “Normalized BRET probe signal” value ([3]; uM -2.52, Time (h) 6)?
Its value is 75.70 and 75.54 and 75.07.

What about the “Normalized BRET probe signal” value ([3]; uM -2.99, Time (h) 2) of the same molecule?
Its value is 99.19 and 102.22 and 99.77.

And the “Normalized BRET probe signal” value ([3]; uM -2.99, Time (h) 3)?
Its value is 95.84 and 93.35 and 94.20.

What about the “Normalized BRET probe signal” value ([3]; uM -2.99, Time (h) 4) of the same molecule?
Its value is 94.50 and 92.51 and 93.76.

What about the “Normalized BRET probe signal” value ([3]; uM -2.99, Time (h) 5) of the same molecule?
The value was 87.56 and 91.04 and 95.19.

What about the “Normalized BRET probe signal” value ([3]; uM -2.99, Time (h) 6) of the same molecule?
Its value is 89.25 and 91.90 and 87.75.

And the “Normalized BRET probe signal” value ([3]; uM -3.47, Time (h) 2)?
The value was 98.78 and 102.46 and 100.43.

And the “Normalized BRET probe signal” value ([3]; uM -3.47, Time (h) 3)?
Its value is 98.17 and 97.18 and 96.26.

And the “Normalized BRET probe signal” value ([3]; uM -3.47, Time (h) 4)?
The value was 96.70 and 95.88 and 97.43.

And the “Normalized BRET probe signal” value ([3]; uM -3.47, Time (h) 5)?
Its value is 93.94 and 96.00 and 96.68.

What about the “Normalized BRET probe signal” value ([3]; uM -3.47, Time (h) 6) of the same molecule?
Its value is 97.50 and 96.53 and 90.92.

And the “Time to plateau of BRET inhibition” value ([3]; live cells, pre-equilibrated CBH-002, 37 °C)?
Its value is ~ 5 h.

What about the “Effect on CBH-002 binding at room temperature” value ([3]; room temperature, 2-h interval) of the same molecule?
Its value is “did not impact CBH-002 binding”.

For `O=C(NC[C@H](O)CN1CCc2ccccc2C1)c1cc(NC2COC2)ncn1` [EPZ015666], which Schild slope ([4]; Global Gaddum/Schild EC50 shift fit, MTA titration, HEK293) is on record?
The Schild slope was 1.3 (1.15 - 1.47).

What about the Hill slope ([4]; [MTA] 0 μM, HEK293) of the same molecule?
The Hill slope was 0.81.

And the Hill slope ([4]; [MTA] 11.11 μM, HEK293)?
The Hill slope was 0.77.

What about the Hill slope ([4]; [MTA] 100 μM, HEK293) of the same molecule?
The Hill slope was 0.72.

And the Hill slope ([4]; [MTA] 300 μM, HEK293)?
The Hill slope was 0.87.

What about the “Hill slope (Global/Schild fit)” value ([4]; constant across [MTA], constrained to 1 for PF06939999 and GSK3326595) of the same molecule?
The value was 0.75 (0.73 - 0.78).

What about the IC50 [5] of the same molecule?
Its IC50 is 62 nM.
